Laboratory results: PubChem BioAssay AID256 (DTP/NCI, 2004)
Inconclusive results and toxic doses are left out.

Test system: CD2F1 mice, L1210 leukemia ip, survival T/C
Test: NCI In Vivo Anticancer Drug Screen. Data for tumor model L1210 Leukemia (intraperitoneal) in CD2F1 (CDF1) mice
Conditions: higher = longer survival
Summary of the method: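 In this screen, transplantable tumors were grown in mice given either the compound or its vehicle. Results were expressed as the treated measurement relative to the control measurement.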

[1] = endpoint: mean survival time, dose: 100.0 mg/kg/injection, schedule: Q04DX003 (ip), vehicle: saline with Tween-80
[2] = endpoint: mean survival time, dose: 200.0 mg/kg/injection, schedule: Q04DX003 (ip), vehicle: saline with Tween-80
[3] = endpoint: mean survival time, dose: 400.0 mg/kg/injection, schedule: Q04DX003 (ip), vehicle: saline with Tween-80
[4] = endpoint: mean survival time, dose: 100.0 mg/kg/injection, schedule: Q01DX009 (ip), vehicle: saline with Tween-80
[5] = endpoint: mean survival time, dose: 200.0 mg/kg/injection, schedule: Q01DX009 (ip), vehicle: saline with Tween-80
[6] = endpoint: mean survival time, dose: 400.0 mg/kg/injection, schedule: Q01DX009 (ip), vehicle: saline with Tween-80

For N#CCCCCCCN=[N+]=[N-], the T/C (endpoint: mean survival time, dose: 75.0 mg/kg/injection, schedule: Q01DX001 (ip), vehicle: saline) was 98 % of control and the T/C (endpoint: mean survival time, dose: 150.0 mg/kg/injection, schedule: Q01DX001 (ip), vehicle: saline) was 98 % of control.
For CCCCCCCCN(c1ccc(C(=O)NC(CCC(=O)OCC)C(=O)OCC)cc1)S(=O)(=O)c1ccc(C)cc1 (configuration not stated), the T/C (endpoint: mean survival time, dose: 12.5 mg/kg/injection, schedule: Q04DX003 (ip), vehicle: saline with Tween-80) was 94 % of control, the T/C (endpoint: mean survival time, dose: 25.0 mg/kg/injection, schedule: Q04DX003 (ip), vehicle: saline with Tween-80) was 100 % of control and the T/C (endpoint: mean survival time, dose: 50.0 mg/kg/injection, schedule: Q04DX003 (ip), vehicle: saline with Tween-80) was 102 % of control. The T/C [1] was 86 % of control, the T/C [2] was 86 % of control and the T/C [3] was 87 % of control.
With CC(=O)Oc1ccc2c3c(ccc2c1)CCCC3 the T/C (endpoint: mean survival time, dose: 25.0 mg/kg/injection, schedule: Q01DX009 (ip), vehicle: Klucel (hydroxypropylcellulose) (HPC)) was 116 % of control, the T/C (endpoint: mean survival time, dose: 50.0 mg/kg/injection, schedule: Q01DX009 (ip), vehicle: Klucel (hydroxypropylcellulose) (HPC)) was 93 % of control and the T/C (endpoint: mean survival time, dose: 100.0 mg/kg/injection, schedule: Q01DX009 (ip), vehicle: Klucel (hydroxypropylcellulose) (HPC)) was 104 % of control.
With CCCn1c(O)c(C=N)c(=O)n(CCC)c1=O the T/C [4] was 98 % of control, the T/C [1] was 96 % of control and the T/C [5] was 101 % of control. For the same compound, the T/C [2] was 97 % of control, the T/C [6] was 101 % of control and the T/C [3] was 100 % of control.
In the case of COC(=O)CC1C2CCc3cc(OC)ccc3C2CCC1(C)C(=O)OC (configuration not stated), the T/C [4] is reported as 97 % of control, the T/C [5] is reported as 101 % of control and the T/C [6] is reported as 94 % of control.
In the case of CC(=O)OCC1OC(n2ccc(O)cc2=O)C(O)C1O (configuration not stated), the T/C (endpoint: median survival time, dose: 44.0 mg/kg/injection, schedule: Q01DX009 (ip), vehicle: saline + alcohol) is reported as 160 % of control, the T/C (endpoint: median survival time, dose: 67.0 mg/kg/injection, schedule: Q01DX009 (ip), vehicle: saline + alcohol) is reported as 169 % of control and the T/C (endpoint: median survival time, dose: 100.0 mg/kg/injection, schedule: Q01DX009 (ip), vehicle: saline + alcohol) is reported as 172 % of control. For the same compound, the T/C (endpoint: median survival time, dose: 150.0 mg/kg/injection, schedule: Q01DX009 (ip), vehicle: saline + alcohol) was 174 % of control.
In the case of CCCCCCCC(=O)OCC(=O)[C@]1(O)Cc2c(O)c3c(c(O)c2[C@@H](OC2CC(N)C(O)C(C)O2)C1)C(=O)c1c(OC)cccc1C3=O (some centres not stated), the T/C (endpoint: mean survival time, dose: 0.5 mg/kg/injection, schedule: Q01DX009 (ip), vehicle: water) is reported as 117 % of control, the T/C (endpoint: mean survival time, dose: 2.0 mg/kg/injection, schedule: Q01DX009 (ip), vehicle: saline sonified) is reported as 153 % of control and the T/C (endpoint: mean survival time, dose: 2.0 mg/kg/injection, schedule: Q01DX009 (ip), vehicle: saline with Tween-80) is reported as 211 % of control. For the same compound, the T/C (endpoint: mean survival time, dose: 2.0 mg/kg/injection, schedule: Q01DX009 (ip), vehicle: water) was 151 % of control, the T/C (endpoint: mean survival time, dose: 3.0 mg/kg/injection, schedule: Q04DX003 (ip), vehicle: saline with Tween-80) was 164 % of control and the T/C (endpoint: mean survival time, dose: 8.0 mg/kg/injection, schedule: Q01DX009 (ip), vehicle: saline with Tween-80) was 90 % of control. For the same compound, the T/C (endpoint: mean survival time, dose: 20.0 mg/kg/injection, schedule: Q01DX001 (ip), vehicle: saline with Tween-80) was 161 % of control and the T/C (endpoint: mean survival time, dose: 20.0 mg/kg/injection, schedule: Q04DX003 (ip), vehicle: saline with Tween-80) was 104 % of control.
